“Also recorded” adds a separate entry of the source. Each block holds one molecule with its values, some of them ahead of it. No end group written: not given here.
What was measured:
[1] = test system: Klebsiella pneumoniae; test: Antibacterial assay (agar dilution), Klebsiella pneumoniae; format: cell-based; conditions: Muller Hinton’s agar, 22 h at 35 °C, clinical isolates
Experimental: (§1) The antibacterial activity of CB-LHRH’ was evaluated by the agar dilution method. Muller Hinton’s agar medium plates containing serial dilutions of CB-LHRH’ were inoculated with 2 μL of tenfold-diluted 0.5 McF bacteria and incubated for 22 h at 35 °C. The lowest concentration of CB-LHRH’ inhibiting bacterial growth was considered the minimal inhibitory concentration (MIC). Nine clinical strains of the following species were evaluated: Staphylococcus aureus, Klebsiella pneumoniae, Escherichia coli, Enterobacter cloacae, Pseudomonas aeruginosa, and Acinetobacter baumannii.

[2] = test system: Pseudomonas aeruginosa; test: Antibacterial assay (agar dilution), Pseudomonas aeruginosa; format: cell-based; conditions: Muller Hinton’s agar, 22 h at 35 °C, clinical isolates, listed as Cecropin B-LHRH’
Experimental: as §1

[3] = test system: guinea pigs; test: Hypersensitization test in guinea pigs; conditions: n = 6
Experimental: Under approved animal research protocol standards, the hypersensitive reaction against CB-LHRH’ (2 mg/mL, equal to 438 μM) was assessed in guinea pigs. According to the Chinese Pharmacopoeia, six animals with an average weight of 250 g (XiFengYang Special Economic Animal Farm, Huzhou, China) were administered an intraperitoneal injection of 0.5 mL of CB-LHRH’ every other day three times, while three additional animals received PBS physiological saline injections. Of the six animals administered CB-LHRH’, three received an intravenous injection of 1 mL CB-LHRH’ at day 15, and the remaining three at day 22. Allergic reactions, such as piloerection, sneezing, lacrimation, dyspnoea, and hyperspasmia, were then monitored for the next 30 min.

[4] = test system: Acinetobacter baumannii; test: Antibacterial assay (agar dilution), Acinetobacter baumannii; format: cell-based; conditions: Muller Hinton’s agar, 22 h at 35 °C, clinical isolates
Experimental: as §1

[5] = test system: nude mice; test: General toxicity (survival, body weight) in ES-2 xenograft mice; format: in vivo, BALB/c-nu mice; conditions: for surviving mice: intra-tumoral, twice daily, thirteen days later, n = 10 (PBS: 9 survived)
Experimental: (§2) Five- to six-week-old female (15–20 g) athymic nude mice (BALB/c-nu) were obtained from Shanghai SLAC Laboratory Animal Corporation, China. The animals were housed in sterile cages under laminar flow hoods in a temperature controlled room with a 12-hour light/12-hour dark cycle, and fed autoclaved chow and water ad libitum. All experiments were carried out in accordance with the guidelines for the welfare ethics of experimental animals. All the animal-related procedures were approved by the Animal Ethical Committee of Zhejiang University.
(§3) Cultured ES-2 ovarian cancer cells were resuspended at 1 × 10^7/ml and inoculated subcutaneously into the nude mouse armpit. When tumors reached 60 mm^3, they were extracted, cut into pieces of about 2 mm^3, and inoculated subcutaneously into the nude mouse armpit. When the tumors reached an average volume of about 100 mm^3, the mice were randomly divided into five groups (n = 10). Groups 1–3 received intra-tumor injection of CB-LHRH’ twice daily at 12.5, 25 or 50 mg/kg^.d, respectively.
General toxicity was evaluated based on body weight, measured weekly.

[6] = test system: Enterobacter cloacae; test: Antibacterial assay (agar dilution), Enterobacter cloacae; format: cell-based; conditions: Muller Hinton’s agar, 22 h at 35 °C, clinical isolates
Experimental: as §1

[7] = test system: Staphylococcus aureus; test: Antibacterial assay (agar dilution), Staphylococcus aureus; format: cell-based; conditions: Muller Hinton’s agar, 22 h at 35 °C, clinical isolates, listed as Cecropin B-LHRH’
Experimental: as §1

[8] = test system: Escherichia coli; test: Antibacterial assay (agar dilution), Escherichia coli; format: cell-based; conditions: Muller Hinton’s agar, 22 h at 35 °C, clinical isolates
Experimental: as §1

[9] = test system: four cancer cell lines (SKOV-3, ES-2, NIH:OVCAR-3, HEC-1A); design: method as in ATCC Global Bioresource Center (USA); conditions: ref ATCC Global Bioresource Center (USA); cited from earlier work
[10] = test system: ES-2 tumors xenografted into nude mice; test: ES-2 xenograft study in nude mice; format: in vivo, BALB/c-nu mice
Experimental: as §2, §3
Tumor volumes were assessed every 3 d as 0.5 × length × width^2 (where length is the longest diameter across the tumor and width the corresponding perpendicular diameter as measured by calipers). On day 13, 4 h after the last dose, mice were sacrificed, and tumors excised and weighed; tumor growth inhibition rate was derived as (1-tumor weight treated/tumor weight control) × 100 %.
Anti-tumor activity was evaluated as relative growth of tumor volume (T/C, value), the mean relative tumor volume (RTV) for the treatment group divided by the mean RTV for the control group, as follows: T/C (%) = TRTV/CRTV X 100 %. RTV = Vt/V0, where Vt is the volume on any given day, and V0 the volume at treatment start.

[11] = biological target: T1, LHRH receptor (LHRHr) (Rattus norvegicus, UniProt P30969); test: radioligand saturation binding (Scatchard), rat pituitary membranes
T1 chain: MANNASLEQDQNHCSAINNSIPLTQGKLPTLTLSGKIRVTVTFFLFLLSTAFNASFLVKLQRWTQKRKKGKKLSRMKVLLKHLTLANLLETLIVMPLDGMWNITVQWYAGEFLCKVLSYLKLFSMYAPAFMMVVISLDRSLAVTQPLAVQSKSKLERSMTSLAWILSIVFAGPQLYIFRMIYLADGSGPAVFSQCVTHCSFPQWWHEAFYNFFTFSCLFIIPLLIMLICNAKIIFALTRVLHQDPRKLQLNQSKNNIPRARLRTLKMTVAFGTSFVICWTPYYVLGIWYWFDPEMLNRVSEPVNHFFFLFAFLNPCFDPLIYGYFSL

Molecule: KWKVFKKIEKMGRNIRNGIVKAGPAIAVLGEAKALSYGLRPG [CB-LHRH’]
MIC [1]: 3.86 to 7.72 µM
MIC [2]: > = 15.44 μM
hypersensitivity / anaphylaxis ([3]; 0.5 mL of 2 mg/mL i.p. every other day three times, then 1 mL i.v. at day 15 or 22, monitored 30 min, data not shown): no hypersensitivity; also recorded: No anaphylaxis occurred in any of the six guinea pigs; also recorded: no hypersensitive reactions in guinea pigs
survival ([3]; 0.5 mL of 2 mg/ml i.p. every other day three times): survived the 15 days of treatment
MIC [4]: 1.93 to 7.72 µM
surviving mice ([5]; CB-LHRH’ 12.5 mg/kg.d): 8
surviving mice ([5]; CB-LHRH’ 25 mg/kg.d): 9
surviving mice ([5]; CB-LHRH’ 50 mg/kg.d): 7
animal weights ([5]; CB-LHRH’ intra-tumoral, by day 13): no differences were found in animal weights
MIC [6]: 3.86 to 7.72 µM
MIC [7]: >15.44 µM
MIC [8]: 3.86 to 7.72 µM

Molecule: N.N.[Cl][Pt][Cl] [Cisplatin]
resistance of the cell lines to the drug [9]: resistant
Tumor Volume, d 1 ([10]; cisplatin 0.67 mg/kg.d (2 mg/kg once every 3 days), d 1, Mean ± SD, n = 10 per group): 343.91 ± 123.06 mm^3
Tumor Volume, d 13 ([10]; cisplatin 0.67 mg/kg.d (2 mg/kg once every 3 days), d 13, Mean ± SD, ** P < 0.01 vs PBS): 913.16 ± 142.64** mm^3
T/C ([10]; cisplatin 0.67 mg/kg.d (2 mg/kg once every 3 days), d 13, RTV treated/RTV PBS control, ≤60 % = active): 42%
Tumor Weight ([10]; cisplatin 2 mg/kg once every 3 days, d 13, Mean ± SD, **P < 0.01 vs PBS): 1.09 ± 0.25 ** g

Molecule: diphtheria toxin
resistance of the cell lines to the drug [9]: resistant

Molecule: COc1cccc2c1C(=O)c1c(O)c3c(c(O)c1C2=O)C[C@@](O)(C(=O)CO)C[C@@H]3O[C@H]1C[C@H](N)[C@H](O)[C@H](C)O1 [doxorubicin]
resistance of the cell lines to the drug [9]: resistant

Kd [11]: 0.253 nM
Molecule: KWKVFKKIEKMGRNIRNGIVKAGPAIAVLGEAKALSYGLRPG (also: 125I-labelled) [Cecropin B-LHRH' (CB-LHRH')]

From article PMC4809036, “Antitumor effects of cecropin B-LHRH’ on drug-resistant ovarian and endometrial cancer cells” (BMC Cancer, 2016)
